No end group written: not given here.
How the values were obtained:
[1] = target: T1, Flag-CREPT (Homo sapiens, UniProt Q9NQG5); assay: GST pull-down; type: binding; conditions: GST-tagged proteins purified from mammalian (HEK293T) cells
T1 construct: expressed in transfected cells; host or cells: HEK293T
T1 sequence (Q9NQG5 1-326): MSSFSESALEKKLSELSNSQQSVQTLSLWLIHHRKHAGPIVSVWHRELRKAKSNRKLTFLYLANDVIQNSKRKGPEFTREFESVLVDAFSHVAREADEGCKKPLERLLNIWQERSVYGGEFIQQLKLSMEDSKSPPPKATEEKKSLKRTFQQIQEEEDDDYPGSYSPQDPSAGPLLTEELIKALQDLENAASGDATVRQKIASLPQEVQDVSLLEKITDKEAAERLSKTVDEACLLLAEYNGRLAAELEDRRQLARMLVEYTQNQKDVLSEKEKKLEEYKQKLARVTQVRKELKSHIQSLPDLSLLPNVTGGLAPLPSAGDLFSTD
Procedure: HEK293T cells were plated in 100 mm dishes and then transfected with the indicated plasmids. After 24 h, cells were harvested using RIPA buffer with mixed protease inhibitors. Cell lysates were incubated with 30 μL of GST-tagged Sepharose beads and 10 μg of purified proteins from either E. coli or HEK293T cells at 4 °C overnight. Beads were eluted five times with lysis buffer. Western blot was performed using an antibody against GST (Cell Signaling Technology) to analyze the association.

[2] = system: Myc-CREPT and Myc-CCT; assay: Exogenous IP experiment in HEK293T cells; type: binding; conditions: GST-tagged CREPT ligand
Procedure: For exogenous immunoprecipitation assays, HEK293T cells were plated in 60 mm dishes and then transfected with the indicated plasmids. After 24 h, cells were harvested using RIPA buffer (50 mM Tris-HCl pH 8.0, 2 mM EDTA pH 8.0, 150 mM NaCl, 1% NP-40, 0.5% sodium deoxycholate, 0.1% SDS) with mixed protease inhibitors. Cell lysates were incubated with 2 μg of the indicated antibodies and 30 μL of protein A/G-Sepharose beads at 4 °C overnight. Beads were eluted five times with lysis buffer (50 mM Tris-HCl pH 7.6, 1 mM EDTA pH 8.0, 165 mM NaCl, 0.5% NP-40), and thereafter, a western blot assay was performed to analyze the association by using the indicated antibodies. Western blot was performed as previously reported. Anti-β-actin and anti-Flag antibodies were purchased from Sigma. Anti-Myc antibody was purchased from Santa Cruz Biotechnology. Antibody against CREPT was produced in the laboratory.

[3] = system: Panc-1 cells; assay: Flow cytometry, entry of FITC-labeled peptides into cells; type: cell-based; conditions: flow cytometry, FITC-labeled peptides, 10 μM, Panc-1 cells, triplicate; in comparison with PRTC, PRTC-m or PRTC-v
Procedure: To examine whether PRTC could permeate into pancreatic cancer cells, we synthesized fluorescein isothiocyanate (FITC) labeled PRTC, PRTC-m, PRTC-v, PRTC-r (PRTC without RRRRK) as well as TAT (a widely used cell penetrating peptide, as a positive control).
Figure 3 Identification of the permeability of PRTC in Panc-1 cells. (A) Entry of FITC- labeled peptides into Panc-1 cells tested by flow cytometry. FITC-TAT is the positive control. Measurements were performed in triplicate. (B) Quantification of cellular uptake of Panc-1 cells treated with different concentrations of FITC-PRTC. (C) Confocal microscope images of Panc-1 cells treated with 10 μM FITC labeled peptides. Scale bars, 10 μm. (D) Confocal microscope images of Panc-1 cells treated with different dosages of FITC-PRTC. Scale bars, 10 μm.

Row | pull down of Flag-CREPT in vitro [1] | fluorescence intensity in the cells (cell entry) [3] | Substance | binding in exogenous IP [2]
1 | able to pull down | – | GST-CL: GST protein tagged with CREPT ligand (CL) (KDVLSEKEKKLEEYKQKLARV; also: GST tag, end not given here) | strongly binds
2 | – | obviously decreased | IYP (OH) AL-AHX-KDVLSEKEKKLEEYKQKLARV [PRTC-r, PRTC without RRRRK] | –

Reference: publication PMC7069095, “A cell-permeable peptide-based PROTAC against the oncoprotein CREPT proficiently inhibits pancreatic cancer” (Theranostics, 2020)
